Results reported in patent US20260007599A1, “TICAGRELOR IV FORMULATIONS FOR USE IN THE TREATMENT OF GRAM-POSITIVE BACTEREMIA” (Hyloris Developments SA, priority 2023, published 2026).

Experiments:
[1] = 3 months stability study at pH 7, 7.5 and 8 in amber glass vials; assay type: physicochemical; design: Assay: unit not given here; details: for Acetal impurity / Amine impurity / Assay / Description / Regiomer / Sum impurities >0.05 / Total (impurity) / Triol impurity / pH: amber vials, HPβCD 40% w/w
Protocol: To optimize the HPβCD concentration and the pH of the solution for intravenous use, a 12 week/3 months stability study was conducted. […] Its stability was tested at regular intervals.
A comparison of stability profile at 3 different pH-7, 7.5 and 8—was carried out as below, the manufacturing process for all 3 formulations was kept constant with buffer strength at 19 mM.

[2] = 30-42% confidence interval; cited from earlier work
[3] = Physical stability and diluent tests of ticagrelor 5 mg/ml batches with varying HPβCD; assay type: physicochemical; details: for Appearance in 5% dextrose / Appearance in NaCl 0.9%: diluted to ticagrelor 0.1 mg/ml; for Appearance, undiluted: ticagrelor 5 mg/ml
Protocol: 5 mg/ml ticagrelor-cyclodextrin solutions with varying amounts of HPβCD were diluted with normal saline, 5% dextrose solution or Ringer's lactate solution. The stability was screened. The ticagrelor concentration when diluted into dextrose or saline was 0.1 mg/ml.

[4] = test system: Staphylococcus agalactiae; details: ex-vivo; cited from earlier work
[5] = Clear aqueous solutions with ticagrelor-cyclodextrin inclusion complex (Table 17); assay type: physicochemical; details: using 20-40% w/w HPβCD
[6] = test system: vancomycin-resistant E. Faecalis (VRE); details: ex-vivo; cited from earlier work
[7] = 19 mM pH 7 phosphate buffer, 1 M
[8] = 19 mM pH 7 phosphate buffer, 2 M
[9] = 19 mM pH 7 phosphate buffer, 3 M
[10] = 19 mM pH 7 phosphate buffer, T0
[11] = 19 mM pH 7.5 phosphate buffer, 1 M
[12] = 19 mM pH 7.5 phosphate buffer, 2 M
[13] = 19 mM pH 7.5 phosphate buffer, 3 M
[14] = 19 mM pH 7.5 phosphate buffer, T0
[15] = 19 mM pH 8 phosphate buffer, 1 M
[16] = 19 mM pH 8 phosphate buffer, 2 M
[17] = 19 mM pH 8 phosphate buffer, 3 M
[18] = 19 mM pH 8 phosphate buffer, T0

## CCCSc1nc(N[C@@H]2C[C@H]2c2ccc(F)c(F)c2)c2nnn([C@@H]3C[C@H](OCCO)[C@@H](O)[C@H]3O)c2n1 [ticagrelor, (1S,2S,3R,5S)-3-{7-[(1R,2S)-2-(3,4-difluorophenyl)cyclopropylamino]5-(propylthio)-3H-(1,2,3)triazolo (4,5-D)pyrimidin-3-yl}-5-(2 hydroxyethoxy) cyclopentane-1,2-diol]
[1]; [7]
  Acetal impurity: 0.05%
  Amine impurity: 0.04%
  Assay: 99.73
  Description: clear
  Regiomer: 0.03%
  Sum impurities >0.05: 0.05%
  Total (impurity): 0.27%
  Triol impurity: 0.02%
  pH: 7.34
[1]; [8]
  Acetal impurity: 0.05%
  Amine impurity: 0.04%
  Assay: 99.81
  Description: clear
  Regiomer: 0.06%
  Sum impurities >0.05: 0.11%
  Total (impurity): 0.34%
  Triol impurity: 0.04%
  pH: 7.34
[1]; [9]
  Acetal impurity: 0.05%
  Amine impurity: 0.06%
  Assay: 98.51
  Description: clear
  Regiomer: 0.11%
  Sum impurities >0.05: 0.22%
  Total (impurity): 0.40%
  Triol impurity: 0.04%
  pH: 7.30
[1]; [10]
  Acetal impurity: 0.05%
  Amine impurity: 0.04%
  Assay: 98.95
  Description: clear
  Regiomer: 0.00%
  Sum impurities >0.05: 0.22%
  Total (impurity): 0.41%
  Triol impurity: 0.05%
  pH: 7.33
[1]; [11]
  Acetal impurity: 0.05%
  Amine impurity: 0.05%
  Assay: 104.47
  Description: clear
  Regiomer: 0.01%
  Sum impurities >0.05: 0.14%
  Total (impurity): 0.32%
  Triol impurity: 0.05%
  pH: 7.50
[1]; [12]
  Acetal impurity: 0.05%
  Amine impurity: 0.05%
  Assay: 102.59
  Description: clear
  Regiomer: 0.04%
  Sum impurities >0.05: 0.15%
  Total (impurity): 0.29%
  Triol impurity: 0.05%
  pH: 7.48
[1]; [13]
  Acetal impurity: 0.05%
  Amine impurity: 0.05%
  Assay: 102.31
  Description: clear
  Regiomer: 0.08%
  Sum impurities >0.05: 0.23%
  Total (impurity): 0.41%
  Triol impurity: 0.04%
  pH: 7.55
[1]; [14]
  Acetal impurity: 0.05%
  Amine impurity: 0.04%
  Assay: 104.27
  Description: clear
  Regiomer: 0.00%
  Sum impurities >0.05: 0.11%
  Total (impurity): 0.31%
  Triol impurity: 0.04%
  pH: 7.40
[1]; [15]
  Acetal impurity: 0.05%
  Amine impurity: 0.05%
  Assay: 105.88
  Description: clear
  Regiomer: 0.01%
  Sum impurities >0.05: 0.09%
  Total (impurity): 0.26%
  Triol impurity: 0.03%
  pH: 8.10
[1]; [16]
  Acetal impurity: 0.05%
  Amine impurity: 0.05%
  Assay: 105.46
  Description: clear
  Regiomer: 0.03%
  Sum impurities >0.05: 0.15%
  Total (impurity): 0.32%
  Triol impurity: 0.05%
  pH: 8.04
[1]; [17]
  Acetal impurity: 0.05%
  Amine impurity: 0.07%
  Assay: 104.46
  Description: clear
  Regiomer: 0.06%
  Sum impurities >0.05: 0.23%
  Total (impurity): 0.37%
  Triol impurity: 0.05%
  pH: 8.03
[1]; [18]
  Acetal impurity: 0.05%
  Amine impurity: 0.04%
  Assay: 103.25
  Description: clear
  Regiomer: 0.00%
  Sum impurities >0.05: 0.25%
  Total (impurity): 0.43%
  Triol impurity: 0.06%
  pH: 8.07
[1]; pH range of 7 to 8
  stability of ticagrelor solution in HPβCD (conclusion): stable
[2]
  Oral bioavailability: 36%
[3]; HPβCD 20-40% w/w, without the use of heat
  ticagrelor concentration that could be dissolved: 5 to 15 mg/mL
[3]; HPβCD 22.5% w/w
  Appearance in 5% dextrose: Clear solution
  Appearance in NaCl 0.9%: Turbid
[3]; HPβCD 25.0% w/w
  Appearance in 5% dextrose: Clear solution
  Appearance in NaCl 0.9%: Turbid
[3]; HPβCD 27.5% w/w
  Appearance in 5% dextrose: Clear solution
  Appearance in NaCl 0.9%: Turbid
[3]; HPβCD 30.0% w/w
  Appearance in 5% dextrose: Clear solution
  Appearance in NaCl 0.9%: Turbid
  Appearance, undiluted: Clear solution
[3]; HPβCD 32.5% w/w
  Appearance in 5% dextrose: Clear solution
  Appearance in NaCl 0.9%: Clear solution
  Appearance, undiluted: Clear solution
[3]; in the refrigerator, HPβCD concentration as low as 22.5% w/w
  stability of undiluted concentrate: remained stable
[4]
  minimal bactericidal concentration: 40 microgram/ml
[5]
  ticagrelor solution concentration achieved: 5 −13 mg/ml
[6]
  minimal bactericidal concentration: 20 microgram/ml
